Assay results from patent US6693063B2, “Herbicidal composition” (Aventis CropScience GmbH, priority 2000, dated 2004).

System: monocotyledonous and dicotyledonous weeds
Assay: Greenhouse post-emergence herbicidal test, effect rated visually against untreated controls
Type: in vivo
Experimental: Seeds or rhizome pieces of monocotyledonous and dicotyledonous weeds were placed in sandy loam soil in plastic pots, covered with soil and grown in a greenhouse under good growth conditions. Three weeks after seeding, the test plants were treated in the three-leaf stage. The compositions of the invention, formulated as wettable powders or as emulsion concentrates, were sprayed onto the green parts of the plants at various application rates of 600-800 l of water/ha (converted). The test plants were allowed to stand in the greenhouse under optimum growth conditions for about 3 to 4 weeks, and the effect of the preparations was then rated visually in comparison to untreated controls. The compositions according to the invention have good herbicidal activity against harmful plants of economic importance.

| SMILES | herbicidal activity compared with a commercial formulation of bromoxynil-octanoate (300 and 600 g of AS/ha as microcapsule suspension (10%, Formulation Example 2), applied with a surfactant such as Genapol X 150, Genapol X 200, Sapogenat T130, T 200, T 300, T 400, T 500 or Genapol O 200 at 150, 300 and 600 g of surfactant/ha) | herbicidal activity compared with bromoxynil-Na applied with a surfactant having a lower content of ethylene oxide units (Genapol® 060, 6 ethylene oxide units) (bromoxynil-Na 300 g/ha in combination with a surfactant such as Genapol X 150, Genapol X 200, Sapogenat T130, T 200, T 300, T 400, T 500 or Genapol O 200 at 50, 100, 300 and 60 g/ha, post-emergence, three-leaf stage, rated after about 3 to 4 weeks) |
| --- | --- | --- |
| CCCCCCCC(=O)Oc1c(Br)cc(C#N)cc1Br [Bromoxynil-octanoate, bromoxynil-octanoate] | considerably higher | – |
| N#Cc1cc(Br)c([O-])c(Br)c1.[Na+] [bromoxynil-Na, bromoxynil-sodium] | – | considerably higher |
